Here are results for two compounds from patent US20180243387A1, “TECHNOLOGY FOR C[…] CELLS” (RIKEN, priority 2017, published 2018).

What all share (assay type): cell-based, mice
Data set [1] relates to naïve CD4SP T cells. Kind of data set: Cell proliferation of naïve CD4SP T cells under anti-CD3/anti-CD28 stimulation (OD 450 nm). As to conditions: for effect of inhibiting cellular proliferation by cGAMP: FIG. 7A. The protocol: Wild type mice and STING-deficient mice were used. As acquired immune lymphocytes, T cells (in particular naïve CD4SP T cells) were used. Naïve CD4SP T cells were obtained as a CD4^+ CD25^− CD62L^+ fraction from murine spleen by sorting using FACSAria. As a STING ligand, cyclic [G(2′,5′)pA(3′,5′)p] (hereinafter, simply referred to as “cGAMP”) was used. cGAMP (manufactured by Invitrogen, Cat. No.: tlrl-nacga23-1) was used at a working concentration of 3 μg/mL, 10 μg/mL, or 30 μg/mL. The obtained T cells were stimulated with an anti-CD3 antibody (10 μg/mL) and an anti-CD28 antibody (10 μg/mL) in the presence or absence of cGAMP. […] The cells were treated for 48 hours and then the cell proliferation was measured by the optical density (OD 450 nm). The result was as illustrated in FIG. 1.
Moreover, the involvement of TBK1 in the function to inhibit cell proliferation by cGAMP was examined using TBK1 heterozygous mice and TBK1 knockout mice. The result was as illustrated in FIG. 6B.
(§1) Next, involvement of IRF3 and IRF7 in the effect of inhibiting cellular proliferation and the effect of increasing production of INF-α through STING were examined. Specifically, T cells from IRF3-deficient mice or IRF3/IRF7 double deficient mice (see Immunity, Vol. 13, 539-548, 2000; Nature, Vol. 434, 772-777, 2005) were stimulated by anti-CD3/CD28 antibodies in the presence or absence of cGAMP. 48 hours later, the proliferation of the cells and the production of INF-α were examined as described above. The results were as illustrated in FIGS. 7A and 7B.

The subject of data set [2] is mTOR Complex 1 (mTORC1) signaling. Kind of data set: Phosphorylated level of signal molecules by western blotting. As to conditions: anti-CD3/CD28 antibodies 24 hours, FIG. 4. On the procedure: As a signal molecule that is involved in the expression of cell proliferation-related genes, the activation level of mTOR Complex 1 (mTORC1) signaling was analyzed. Specifically, as described in (1) above, naïve CD4SP T cells were stimulated with anti-CD3/CD28 antibodies for 24 hours in the presence or absence of cGAMP. Subsequently, the phosphorylated level of indicated factors was evaluated with antibodies specific to the phosphorylated form by western blotting. As primary antibodies, the antibodies set forth in the following were used. The following primary antibodies were manufactured by Cell Signaling Technology, Inc. and the catalog numbers are indicated in the parentheses.
Anti-phospho-IRF3 (#4947)
Anti-phospho-STAT5 (#9351)
Anti-phospho-Jak3 (#5031)
Anti-phospho-STING (#13647)
As a second antibody, Goat anti-Rabbit IgG (H+L) Secondary Antibody, HRP from Thermo Fisher Scientific Inc. was used. Phosphorylated proteins were detected according to a manufacturer manual. The result was as illustrated in FIG. 4.

The subject of data set [3] is lipid synthesis genes that are induced by the activation of mTORC1. Kind of data set: Expression levels of lipid synthesis genes by quantitative PCR. As to conditions: FIG. 5. The protocol:
Moreover, the expression levels of lipid synthesis genes that are induced by the activation of mTORC1 were analyzed by quantitative PCR. The result was as illustrated in FIG. 5.

Data set [4] deals with naïve CD4SP T cells. Kind of data set: Cell survival rate of naïve CD4SP T cells (apoptosis inducing effect). As to conditions: cGAMP 10 or 30 μg/mL, 15 hours, FIG. 2.
A further data set has as its system type I interferon INF-α. Kind of data set: Production of type I interferon INF-α in naïve CD4SP T cells by ELISA. As to conditions: for effect of increasing production of INF-α by cGAMP: 48 hours, FIG. 7B. The protocol: 1×10^5 naïve CD4SP T cells were stimulated for 48 hours on a plate on which an anti-CD3 antibody (10 μg/mL) and an anti-CD28 antibody (10 μg/mL) were immobilized. The cell supernatant was collected and the production of the type I interferon INF-α was examined by ELISA using an anti-INF-α antibody. In innate immune cells, type I interferons are produced by the activation of TBK1 and its downstream IRF3 and IRF7. Therefore, T cells from TBK1 heteromice (Tbk1+/−) and TBK1-deficient mice (Tbk1−/−) were used (see, J Exp Med, Vol. 199, 1641-1650, 2004). The result was as illustrated in FIG. 6A.
as §1
A general note: An ELISA detects its analyte on a solid surface through an enzyme-linked reagent.

Data set [5] concerns cell cycle-related factors in naïve CD4SP T cells. Kind of data set: Gene expression of cell cycle-related factors by quantitative PCR. As to conditions: anti-CD3/CD28 antibodies 24 hours, FIG. 3. The protocol:
As described in (1) above, naïve CD4SP T cells were stimulated with anti-CD3/CD28 antibodies for 24 hours in the presence or absence of cGAMP. Subsequently, the gene expression of cell cycle-related factors was examined by quantitative PCR according to a conventional method. The result was as illustrated in FIG. 3.

`Nc1nc2c(ncn2[C@@H]2O[C@@H]3COP(=O)(O)O[C@H]4[C@@H](O)[C@H](n5cnc6c(N)ncnc65)O[C@@H]4COP(=O)(O)O[C@@H]2[C@@H]3O)c(=O)[nH]1` [cGAMP, cyclic [G(2′,5′)pA(3′,5′)p]]: in the data set on naïve CD4SP T cells [1] (IRF3/IRF7 double deficient mice, 48 hours), the “effect of inhibiting cellular proliferation by cGAMP” value was “largely decreased”. Also, in the data set with naïve CD4SP T cells [1] (IRF3 deficient mouse, 48 hours), the “effect of inhibiting cellular proliferation by cGAMP” value is “partially decreased”. The “effect on the number of naïve CD4SP T cells” value in the data set on naïve CD4SP T cells [1] (STING-deficient mice (STING−/−), anti-CD3/anti-CD28 stimulation, 48 hours, FIG. 1) was “limited”. In addition, the “effect of Tbk1 knockout on inhibition of cell proliferation by cGAMP” value with naïve CD4SP T cells [1] (TBK1 knockout versus TBK1 heterozygous mice, FIG. 6B) is given as “almost no effect”. In the data set with naïve CD4SP T cells [1] (cGAMP versus 10 μM etoposide, 48 hours, FIG. 1), the “degree of effect on the number of cells compared with etoposide” value is “acted in a degree similar to etoposide”. The “number of naïve CD4SP T cells (cell proliferation, OD 450 nm)” value in the data set on naïve CD4SP T cells [1] (wild type mice (STING+/+), cGAMP 3, 10 or 30 μg/mL, anti-CD3/anti-CD28 stimulation, 48 hours, FIG. 1) is “decreased in a concentration-dependent manner”. Also, in data set [2], the “level of phosphorylated 4E-BP1” value was “decreased” and the “level of phosphorylated S6K” value is recorded as “decreased”. For the same compound, the “expression levels of lipid synthesis-related genes” value in data set [3] is on record as “decreased”. Moreover, the apoptosis-inducing effect result in the data set on naïve CD4SP T cells [4] (etoposide 10 μM) is reported as “any prominent apoptosis-inducing effect was not found”. Besides, the cell survival rate result in the data set with naïve CD4SP T cells [4] is “decreased to some extent in a concentration-dependent manner”. Besides, the “effect of increasing production of INF-α by cGAMP” value in the data set with type I interferon INF-α (IRF3/IRF7 double deficient mice) was “almost completely disappeared”. For the same compound, the “effect of increasing production of INF-α by cGAMP” value in the data set with type I interferon INF-α (IRF3 deficient mice) is given as “almost completely disappeared”. For the same compound, in the data set on type I interferon INF-α (TBK1-deficient mice (Tbk1−/−) versus Tbk1+/−, FIG. 6A), the “increase in production of INF-α by cGAMP” value was “decreased by TBK1 knockout”. For the same compound, in the data set on type I interferon INF-α (anti-CD3/anti-CD28 stimulation 48 hours, ELISA of supernatant, FIG. 6A), the “INF-α production in T cells” value is “prominent increase”. Further, in data set [5], the “expression of Cdk1” value is “inhibited”, the “expression of Cdk4” value is reported as “inhibited”, the “expression of cyclin A2” value is on record as “inhibited” and the “expression of cyclin B1” value is on record as “inhibited”. Moreover, in data set [5], the “expression of cyclin D3” value is reported as “inhibited” and the “expression of p21” value is “increased”.
Take `COc1cc([C@@H]2c3cc4c(cc3[C@@H](O[C@@H]3O[C@@H]5CO[C@@H](C)O[C@H]5[C@H](O)[C@H]3O)[C@H]3COC(=O)[C@H]23)OCO4)cc(OC)c1O` [etoposide]: the “number of cells (cell proliferation, OD 450 nm)” value in the data set with naïve CD4SP T cells [1] (etoposide 10 μM, STING+/+ and STING−/−, 48 hours, FIG. 1) is recorded as “decreased independent of the STING genotype”.
